Assay results reported in ChEMBL document CHEMBL1909046, “DrugMatrix in vitro pharmacology data”.

Key:
[1] = molecular target: Receptor tyrosine-protein kinase erbB-2 (Homo sapiens, UniProt P04626); experiment: biochemical; format: cell-based, Insect cells;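 note: inhibition of HER2 kinase enzyme activity, measured with Poly(Glu:Tyr) as the phosphorylation substrate; in other assays of this panel Not Active means under 50% inhibition at 10 µM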
Estrogen receptor beta = Estrogen receptor beta (Homo sapiens, UniProt Q92731); conditions: sf9; note: in other assays of this panel Not Active means under 50% inhibition at 10 µM
Interstitial collagenase = molecular target: T1, Interstitial collagenase (Homo sapiens, UniProt P03956); experiment: biochemical; format: tissue-based, Rheumatoid synovial fibroblasts;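 note: MMP-1 enzyme inhibition assay using a peptide substrate; in other assays of this panel Not Active means under 50% inhibition at 10 µM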
T1 sequence (P03956 whole entry): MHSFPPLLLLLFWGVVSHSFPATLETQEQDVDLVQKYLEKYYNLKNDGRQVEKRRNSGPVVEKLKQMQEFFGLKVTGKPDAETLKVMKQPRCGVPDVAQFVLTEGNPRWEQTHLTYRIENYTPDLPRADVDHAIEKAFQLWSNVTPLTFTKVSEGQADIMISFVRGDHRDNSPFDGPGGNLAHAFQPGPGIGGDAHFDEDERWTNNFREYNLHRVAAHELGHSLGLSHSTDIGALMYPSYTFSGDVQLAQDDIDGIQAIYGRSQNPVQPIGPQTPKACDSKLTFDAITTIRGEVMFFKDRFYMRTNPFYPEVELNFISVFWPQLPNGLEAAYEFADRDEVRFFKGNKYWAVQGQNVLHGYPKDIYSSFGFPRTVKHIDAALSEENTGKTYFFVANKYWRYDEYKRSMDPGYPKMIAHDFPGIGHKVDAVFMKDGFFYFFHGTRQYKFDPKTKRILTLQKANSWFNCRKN

[2] = DRUGMATRIX: Glutamate, Kainate radioligand binding (ligand: [3H] Kainic acid); format: cell membranes, Rattus norvegicus, Wistar, Brain, Membrane; conditions: Not Active = under 50% inhibition at 10 µM
[3] = DRUGMATRIX: GABAA, Muscimol, Central radioligand binding (ligand: [3H] Muscimol); format: cell membranes, Rattus norvegicus, Wistar, Brain, Membrane; conditions: Not Active = under 50% inhibition at 10 µM
[4] = DRUGMATRIX: Calcium Channel Type L, Dihydropyridine radioligand binding (ligand: [3H] Nitrendipine); format: cell membranes, Rattus norvegicus, Wistar, Cerebral cortex, Membrane; conditions: Not Active = under 50% inhibition at 10 µM
[5] = molecular target: T2, 3-hydroxy-3-methylglutaryl-coenzyme A reductase (Homo sapiens, UniProt P04035); set-up: species or system Escherichia coli;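 note: enzyme inhibition assay of HMG-CoA reductase using radiolabeled [14C]HMG-CoA as substrate; in other assays of this panel Not Active means under 50% inhibition at 10 µM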
T2 sequence (P04035 whole entry): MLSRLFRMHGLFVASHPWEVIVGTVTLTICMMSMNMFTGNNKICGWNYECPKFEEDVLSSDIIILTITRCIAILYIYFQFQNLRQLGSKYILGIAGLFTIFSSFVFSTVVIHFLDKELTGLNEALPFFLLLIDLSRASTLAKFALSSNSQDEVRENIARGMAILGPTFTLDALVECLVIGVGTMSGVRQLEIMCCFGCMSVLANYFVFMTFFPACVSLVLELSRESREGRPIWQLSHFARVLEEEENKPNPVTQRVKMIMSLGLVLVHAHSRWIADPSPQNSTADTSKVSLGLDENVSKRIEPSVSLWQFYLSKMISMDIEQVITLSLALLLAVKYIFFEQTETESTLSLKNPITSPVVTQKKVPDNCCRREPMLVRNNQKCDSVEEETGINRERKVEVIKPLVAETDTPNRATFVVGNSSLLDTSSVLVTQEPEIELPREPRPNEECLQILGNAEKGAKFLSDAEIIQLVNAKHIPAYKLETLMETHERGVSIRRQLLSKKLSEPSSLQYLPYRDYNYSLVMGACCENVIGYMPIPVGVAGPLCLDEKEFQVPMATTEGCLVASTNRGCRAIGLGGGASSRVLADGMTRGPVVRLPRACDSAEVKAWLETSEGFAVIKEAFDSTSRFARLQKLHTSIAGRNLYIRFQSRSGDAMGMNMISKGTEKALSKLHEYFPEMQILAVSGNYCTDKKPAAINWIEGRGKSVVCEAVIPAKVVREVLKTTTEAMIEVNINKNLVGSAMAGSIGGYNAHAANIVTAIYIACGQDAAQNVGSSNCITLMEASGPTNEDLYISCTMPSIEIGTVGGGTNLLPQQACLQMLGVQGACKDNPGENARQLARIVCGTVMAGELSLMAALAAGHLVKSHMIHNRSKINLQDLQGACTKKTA

Cytochrome P450 1A2 = molecular target: T3, Cytochrome P450 1A2 (Homo sapiens, UniProt P05177); conditions: bti-tn-5b1-4; note: in other assays of this panel Not Active means under 50% inhibition at 10 µM
T3 sequence (P05177 whole entry): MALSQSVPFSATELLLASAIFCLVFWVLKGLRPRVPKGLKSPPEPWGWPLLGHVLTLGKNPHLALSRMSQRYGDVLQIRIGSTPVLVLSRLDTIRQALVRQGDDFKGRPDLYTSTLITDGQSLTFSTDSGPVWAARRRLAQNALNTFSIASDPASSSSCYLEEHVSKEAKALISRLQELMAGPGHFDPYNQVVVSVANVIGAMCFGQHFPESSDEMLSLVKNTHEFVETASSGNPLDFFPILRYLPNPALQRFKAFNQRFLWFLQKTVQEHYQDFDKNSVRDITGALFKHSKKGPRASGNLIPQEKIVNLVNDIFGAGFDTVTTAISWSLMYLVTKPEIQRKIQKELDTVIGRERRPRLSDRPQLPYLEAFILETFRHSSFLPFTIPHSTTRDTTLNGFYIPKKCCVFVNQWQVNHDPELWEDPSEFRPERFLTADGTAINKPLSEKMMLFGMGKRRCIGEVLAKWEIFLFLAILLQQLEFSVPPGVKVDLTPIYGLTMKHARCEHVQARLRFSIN

Chain of Estrogen receptor beta (Q92731 whole entry): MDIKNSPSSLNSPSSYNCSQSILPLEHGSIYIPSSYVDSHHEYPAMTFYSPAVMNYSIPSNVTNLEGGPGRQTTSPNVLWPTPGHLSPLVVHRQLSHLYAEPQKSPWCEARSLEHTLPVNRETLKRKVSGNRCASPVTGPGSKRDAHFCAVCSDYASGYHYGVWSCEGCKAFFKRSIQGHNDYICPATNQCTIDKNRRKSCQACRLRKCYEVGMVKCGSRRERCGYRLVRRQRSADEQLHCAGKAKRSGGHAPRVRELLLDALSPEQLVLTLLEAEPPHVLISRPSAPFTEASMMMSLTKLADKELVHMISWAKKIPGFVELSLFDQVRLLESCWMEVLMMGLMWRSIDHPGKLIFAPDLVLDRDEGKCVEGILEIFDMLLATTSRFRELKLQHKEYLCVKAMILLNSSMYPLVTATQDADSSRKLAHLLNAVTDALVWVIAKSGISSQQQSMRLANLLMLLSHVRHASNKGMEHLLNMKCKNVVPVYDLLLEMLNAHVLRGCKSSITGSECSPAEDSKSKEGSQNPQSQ
Chain of Receptor tyrosine-protein kinase erbB-2 (P04626 whole entry): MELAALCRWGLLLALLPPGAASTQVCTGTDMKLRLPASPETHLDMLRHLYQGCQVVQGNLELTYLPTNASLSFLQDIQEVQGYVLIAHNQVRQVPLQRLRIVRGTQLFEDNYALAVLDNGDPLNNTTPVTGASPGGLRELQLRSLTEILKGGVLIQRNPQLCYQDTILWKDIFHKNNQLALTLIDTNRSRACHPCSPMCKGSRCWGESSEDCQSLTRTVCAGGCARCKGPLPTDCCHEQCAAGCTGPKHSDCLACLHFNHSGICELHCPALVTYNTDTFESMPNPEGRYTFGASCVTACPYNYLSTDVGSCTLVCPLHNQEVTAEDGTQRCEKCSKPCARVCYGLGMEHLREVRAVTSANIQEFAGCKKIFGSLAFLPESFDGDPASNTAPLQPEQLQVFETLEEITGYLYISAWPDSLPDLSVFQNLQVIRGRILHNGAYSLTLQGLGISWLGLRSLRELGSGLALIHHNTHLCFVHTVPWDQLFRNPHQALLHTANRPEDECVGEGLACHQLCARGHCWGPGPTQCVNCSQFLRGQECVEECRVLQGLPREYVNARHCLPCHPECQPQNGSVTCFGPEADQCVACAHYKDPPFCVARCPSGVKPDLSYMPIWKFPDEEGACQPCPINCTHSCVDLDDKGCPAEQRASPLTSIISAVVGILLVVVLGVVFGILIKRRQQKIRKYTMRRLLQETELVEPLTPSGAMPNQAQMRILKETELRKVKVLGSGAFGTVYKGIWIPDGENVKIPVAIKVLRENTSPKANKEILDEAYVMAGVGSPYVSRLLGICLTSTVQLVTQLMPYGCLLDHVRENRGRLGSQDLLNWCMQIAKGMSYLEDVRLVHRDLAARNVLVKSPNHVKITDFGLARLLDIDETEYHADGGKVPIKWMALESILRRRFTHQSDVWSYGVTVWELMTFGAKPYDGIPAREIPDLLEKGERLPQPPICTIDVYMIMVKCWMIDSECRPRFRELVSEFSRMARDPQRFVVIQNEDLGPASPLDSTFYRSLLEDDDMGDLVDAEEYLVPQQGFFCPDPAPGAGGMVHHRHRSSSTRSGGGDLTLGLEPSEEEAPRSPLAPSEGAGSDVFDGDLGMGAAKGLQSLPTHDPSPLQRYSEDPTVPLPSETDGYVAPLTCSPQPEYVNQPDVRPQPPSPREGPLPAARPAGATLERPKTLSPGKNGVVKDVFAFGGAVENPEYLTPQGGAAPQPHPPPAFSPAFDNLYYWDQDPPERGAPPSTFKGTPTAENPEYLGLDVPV

Structure (SMILES)	IC50 ([1]; insect cells)	IC50 (Estrogen receptor beta)	IC50 (Interstitial collagenase)	IC50 [2]	Ki [2]	IC50 [3]	Ki [3]	IC50 [4]	Ki [4]	IC50 [5]	IC50 (Cytochrome P450 1A2)	Ki (Cytochrome P450 1A2)	IC50 ([1]; read-out: IC50) [µM]	IC50 (Interstitial collagenase; read-out: IC50) [µM]
C#C[C@]1(OC(C)=O)CC[C@H]2[C@@H]3CCC4=C[C@@H](OC(C)=O)CC[C@@H]4[C@H]3CC[C@@]21C [ETHYNODIOL DIACETATE]	Not Active	Not Active	Not Active	Not Active	Not Active	Not Active	Not Active	Not Active	Not Active	Not Active	Not Active	Not Active		
CC(C(=O)O)c1cccc(Oc2ccccc2)c1 (centres undefined) [FENOPROFEN]	Not Active	Not Active	Not Active	Not Active	Not Active	Not Active	Not Active	Not Active	Not Active	Not Active	Not Active	Not Active		
Nc1ccn([C@@H]2O[C@H](CO)[C@@H](O)C2(F)F)c(=O)n1 [GEMCITABINE]	Not Active	Not Active	Not Active	Not Active	Not Active	Not Active	Not Active	Not Active	Not Active	Not Active	Not Active	Not Active		
COC1=C(OC)C(=O)C(CCCCCCCCCCO)=C(C)C1=O [IDEBENONE]	Not Active	Not Active	Not Active	Not Active	Not Active	Not Active	Not Active	Not Active	Not Active	Not Active	Not Active	Not Active		
CC(C)NNC(=O)c1ccncc1 [IPRONIAZID]	Not Active	Not Active	Not Active	Not Active	Not Active	Not Active	Not Active	Not Active	Not Active	Not Active	Not Active	Not Active		
Cc1c(OCC(F)(F)F)ccnc1C[S+]([O-])c1nc2ccccc2[nH]1 (centres undefined) [LANSOPRAZOLE]	Not Active	Not Active	Not Active	Not Active	Not Active	Not Active	Not Active	Not Active	Not Active	Not Active	Not Active	Not Active		
COc1ccc2[nH]cc(CCNC(C)=O)c2c1 [MELATONIN]	Not Active	Not Active	Not Active	Not Active	Not Active	Not Active	Not Active	Not Active	Not Active	Not Active	Not Active	Not Active		
NC(=O)C[S+]([O-])C(c1ccccc1)c1ccccc1 (centres undefined) [MODAFINIL]	Not Active	Not Active	Not Active	Not Active	Not Active	Not Active	Not Active	Not Active	Not Active	Not Active	Not Active	Not Active		
CCN(CC)CCOCCC1=CCC2CC1C2(C)C (centres undefined) [MYRTECAINE]	Not Active	Not Active	Not Active	Not Active	Not Active	Not Active	Not Active	Not Active	Not Active	Not Active	Not Active	Not Active		
O=C(O)c1cccnc1Nc1cccc(C(F)(F)F)c1 [NIFLUMIC ACID]	Not Active	Not Active	Not Active	Not Active	Not Active	Not Active	Not Active	Not Active	Not Active	Not Active	Not Active	Not Active		
O=C(N/N=C/c1ccc([N+](=O)[O-])o1)c1cc([N+](=O)[O-])cc([N+](=O)[O-])c1O [NIFURSOL]	Not Active	Not Active	Not Active	Not Active	Not Active	Not Active	Not Active	Not Active	Not Active	Not Active	Not Active	Not Active		
COC(=O)Nc1nc2ccc(C(=O)c3cccs3)cc2[nH]1 [NOCODAZOLE]	Not Active	Not Active	Not Active	Not Active	Not Active	Not Active	Not Active	Not Active	Not Active	Not Active	Not Active	Not Active		
CC(=O)O[C@H]1C(=O)[C@@]2(C)[C@H]([C@H](OC(=O)c3ccccc3)[C@]3(O)C[C@H](OC(=O)[C@H](O)[C@@H](NC(=O)c4ccccc4)c4ccccc4)C(C)=C1C3(C)C)[C@]1(OC(C)=O)CO[C@@H]1C[C@@H]2O [PACLITAXEL]		Not Active	Not Active	Not Active	Not Active	Not Active	Not Active	Not Active	Not Active	Not Active	Not Active	Not Active	11.1	
C[n+]1ccc(-c2cc[n+](C)cc2)cc1.[Cl-].[Cl-] [PARAQUAT DICHLORIDE]	Not Active	Not Active	Not Active	Not Active	Not Active	Not Active	Not Active	Not Active	Not Active	Not Active	Not Active	Not Active		
C[n+]1ccccc1/C=N/O.[Cl-] [PRALIDOXIME CHLORIDE]	Not Active	Not Active	Not Active	Not Active	Not Active	Not Active	Not Active	Not Active	Not Active	Not Active	Not Active	Not Active		
COc1cc2nc(N3CCN(C(=O)c4ccco4)CC3)nc(N)c2cc1OC [PRAZOSIN]	Not Active	Not Active		Not Active	Not Active	Not Active	Not Active	Not Active	Not Active	Not Active	Not Active	Not Active		4.04
C[C@]12C=CC(=O)C=C1CC[C@@H]1[C@@H]2[C@@H](O)C[C@@]2(C)[C@H]1CC[C@]2(O)C(=O)CO [PREDNISOLONE]	Not Active	Not Active	Not Active	Not Active	Not Active	Not Active	Not Active	Not Active	Not Active	Not Active	Not Active	Not Active		
